Results reported in US10100058B2, “Fused heterocyclic compounds as CaM kinase inhibitors” (Gilead Sciences, Inc., priority 2016, dated 2018).

Molecular target: recombinant CaMKIIδ (Homo sapiens (Human), UniProt Q13557)
Assay: CaMKIIδ biochemical assay (HTRF)
Conditions: 10 pM CaMKIIδ, 110 nM calmodulin, 12 μM ATP, 1 hour; read-out: CAMKIID-HTRF-384V2 (IC50 - nM)
Experimental: CaMKIIδ Biochemical Assay
The biochemical activity of recombinant CaMKIIδ was measured by monitoring the phosphorylation of a target peptide using Homogenous Time Resolved Fluorescence (HTRF) technology from CisBio Bioassays.

IC50 [nM] | SMILES
0.1 | CCN(CC)[C@@H](C)CNC(=O)c1cc(-c2cnn3ccc(-c4cccs4)nc23)nc(N2CC(C)(O)C2)c1 [Example 226, (S)—N-(2-(diethylamino)propyl)-2-(3-hydroxy-3-methylazetidin-1-yl)-6-(5-(thiophen-2-yl)pyrazolo[1,5-a]pyrimidin-3-yl)isonicotinamide]
0.07 | CCN(CC)[C@@H](C)CNC(=O)c1cc(-c2cnn3ccc(-c4cccs4)nc23)nc(N2CC(C)(OC)C2)c1 [Example 227, (S)—N-(2-(diethylamino)propyl)-2-(3-methoxy-3-methylazetidin-1-yl)-6-(5-(thiophen-2-yl)pyrazolo[1,5-a]pyrimidin-3-yl)isonicotinamide]
0.28 | CCN(CC)[C@@H](C)CNC(=O)c1cc(-c2cnn3ccc(-c4cccs4)nc23)nc(N2CCC(F)(F)C2)c1 [Example 232, (S)—N-(2-(diethylamino)propyl)-2-(3,3-difluoropyrrolidin-1-yl)-6-(5-(thiophen-2-yl)pyrazolo[1,5-a]pyrimidin-3-yl)isonicotinamide]
0.18 | CCN(CC)[C@@H](C)CNC(=O)c1cc(-c2cnn3ccc(-c4cccs4)nc23)nc(N2CCC3(COC3)C2)c1 [Example 233, (S)—N-(2-(diethylamino)propyl)-2-(2-oxa-6-azaspiro[3.4]octan-6-yl)-6-(5-(thiophen-2-yl)pyrazolo[1,5-a]pyrimidin-3-yl)isonicotinamide]
1.28 | CCN(CC)[C@@H](C)CNC(=O)c1cc(-c2cnn3ccc(-c4cccs4)nc23)nc(N2CCC23COC3)c1 [Example 234, (S)—N-(2-(diethylamino)propyl)-2-(6-oxa-1-azaspiro[3.3]heptan-1-yl)-6-(5-(thiophen-2-yl)pyrazolo[1,5-a]pyrimidin-3-yl)isonicotinamide]
0.14 | CCN(CC)[C@@H](C)CNC(=O)c1cc(-c2cnn3ccc(-c4cccs4)nc23)nc(N2C[C@H](O)[C@@H](O)C2)c1 [Example 243, N—((S)-2-(diethylamino)propyl)-2-((3S,4S)-3,4-dihydroxypyrrolidin-1-yl)-6-(5-(thiophen-2-yl)pyrazolo[1,5-a]pyrimidin-3-yl)isonicotinamide]
0.16 | CCN(CC)[C@@H](C)CNC(=O)c1cc(-c2cnn3ccc(-c4cccs4)nc23)nc(N2CC(CO)(CO)C2)c1 [Example 244, (S)-2-(3,3-bis(hydroxymethyl)azetidin-1-yl)-N-(2-(diethylamino)propyl)-6-(5-(thiophen-2-yl)pyrazolo[1,5-a]pyrimidin-3-yl)isonicotinamide]
0.46 | CCN(CC)[C@@H](C)CNC(=O)c1cc(-c2cnn3ccc(-c4cccs4)nc23)nc(N2CCC(OC)CC2)c1 [Example 247, (S)—N-(2-(diethylamino)propyl)-2-(4-methoxypiperidin-1-yl)-6-(5-(thiophen-2-yl)pyrazolo[1,5-a]pyrimidin-3-yl)isonicotinamide]
0.21 | CCN(CC)[C@@H](C)CNC(=O)c1cc(-c2cnn3ccc(-c4cccs4)nc23)nc(N2CC(C)(N(C)C)C2)c1 [Example 248, (S)—N-(2-(diethylamino)propyl)-2-(3-(dimethylamino)-3-methylazetidin-1-yl)-6-(5-(thiophen-2-yl)pyrazolo[1,5-a]pyrimidin-3-yl)isonicotinamide]
0.2 | CCN(CC)[C@@H](C)CNC(=O)c1cc(-c2cnn3ccc(-c4cccs4)nc23)nc(N2CC3(CCC3(F)F)C2)c1 [Example 249, (S)—N-(2-(diethylamino)propyl)-2-(5,5-difluoro-2-azaspiro[3.3]heptan 2 yl)-6-(5-(thiophen-2-yl)pyrazolo[1,5-a]pyrimidin-3-yl)isonicotinamide]
1.61 | CCN(CC)[C@@H](C)CNC(=O)c1cc(-c2cnn3ccc(-c4cccs4)nc23)nc(N2CCC23CCC3)c1 [Example 250, (S)—N-(2-(diethylamino)propyl)-2-(1-azaspiro[3.3]heptan-1-yl)-6-(5-(thiophen-2-yl)pyrazolo[1,5-a]pyrimidin-3-yl)isonicotinamide]
2.05 | CCN(CC)[C@@H](C)CNC(=O)c1cc(-c2cnn3ccc(-c4cccs4)nc23)nc(N2CCC[C@@H]2C(F)(F)F)c1 [Example 251, N—((S)-2-(diethylamino)propyl)-2-(5-(thiophen-2-yl)pyrazolo[1,5-a]pyrimidin-3-yl)-6-((R)-2-(trifluoromethyl)pyrrolidin-1-yl)isonicotinamide]
1.87 | CCN(CC)[C@@H](C)CNC(=O)c1cc(-c2cnn3ccc(-c4cccs4)nc23)nc(-n2cncn2)c1 [Example 252, (S)—N-(2-(diethylamino)propyl)-2-(5-(thiophen-2-yl)pyrazolo[1,5-a]pyrimidin-3-yl)-6-(1H-1,2,4-triazol-1-yl)isonicotinamide]
0.38 | CCN(CC)[C@@H](C)CNC(=O)c1cc(-c2cnn3ccc(-c4cccs4)nc23)nc(N2C[C@@H]3C[C@H]2CO3)c1 [Example 253, 2-((1S,4S)-2-oxa-5-azabicyclo[2.2.1]heptan-5-yl)-N—((S)-2-(diethylamino)propyl)-6-(5-(thiophen-2-yl)pyrazolo[1,5-a]pyrimidin-3-yl)isonicotinamide]

Continued, compound first:

SMILES | IC50 [nM]
CCN(CC)[C@@H](C)CNC(=O)c1cc(-c2cnn3ccc(-c4cccs4)nc23)nc(N2CC(F)(F)C(F)(F)C2)c1 [Example 230, (S)—N-(2-(diethylamino)propyl)-2-(3,3,4,4-tetrafluoropyrrolidin-1-yl)-6-(5-(thiophen-2-yl)pyrazolo[1,5-a]pyrimidin-3-yl)isonicotinamide] | 1.8
CCN(CC)[C@@H](C)CNC(=O)c1cc(Nc2cn[nH]c2)nc(-c2cnn3ccc(-c4cccs4)nc23)c1 [Example 231, (S)-2-((1H-pyrazol-4-yl)amino)-N-(2-(diethylamino)propyl)-6-(5-(thiophen-2-yl)pyrazolo[1,5-a]pyrimidin-3-yl)isonicotinamide] | 0.06
CCN(CC)[C@@H](C)CNC(=O)c1cc(N[C@H](C)C(N)=O)nc(-c2cnn3ccc(-c4cccs4)nc23)c1 [Example 235, 2-(((R)-1-amino-1-oxopropan-2-yl)amino)-N—((S)-2-(diethylamino)propyl)-6-(5-(thiophen-2-yl)pyrazolo[1,5-a]pyrimidin-3-yl)isonicotinamide] | 1.83
CCN(CC)[C@@H](C)CNC(=O)c1cc(N[C@@H](C)C(N)=O)nc(-c2cnn3ccc(-c4cccs4)nc23)c1 [Example 236, 2-(((S)-1-amino-1-oxopropan-2-yl)amino)-N—((S)-2-(diethylamino)propyl)-6-(5-(thiophen-2-yl)pyrazolo[1,5-a]pyrimidin-3-yl)isonicotinamide] | 0.83
CCN(CC)[C@@H](C)CNC(=O)c1cc(NCc2ncc[nH]2)nc(-c2cnn3ccc(-c4cccs4)nc23)c1 [Example 237, (S)-2-(((1H-imidazol-2-yl)methyl)amino)-N-(2-(diethylamino)propyl)-6-(5-(thiophen-2-yl)pyrazolo[1,5-a]pyrimidin-3-yl)isonicotinamide] | 0.13
CCN(CC)[C@@H](C)CNC(=O)c1cc(NCC(N)=O)nc(-c2cnn3ccc(-c4cccs4)nc23)c1 [Example 238, (S)-2-((2-amino-2-oxoethyl)amino)-N-(2-(diethylamino)propyl)-6-(5-(thiophen-2-yl)pyrazolo[1,5-a]pyrimidin-3-yl)isonicotinamide] | 0.28
CCN(CC)[C@@H](C)CNC(=O)c1cc(N[C@H](C)C(=O)NC)nc(-c2cnn3ccc(-c4cccs4)nc23)c1 [Example 239, N—((S)-2-(diethylamino)propyl)-2-(((R)-1-(methylamino)-1-oxopropan-2-yl)amino)-6-(5-(thiophen-2-yl)pyrazolo[1,5-a]pyrimidin-3-yl)isonicotinamide] | 3.66
CCN(CC)[C@@H](C)CNC(=O)c1cc(N[C@@H](C)C(=O)NC)nc(-c2cnn3ccc(-c4cccs4)nc23)c1 [Example 240, N—((S)-2-(diethylamino)propyl)-2-(((S)-1-(methylamino)-1-oxopropan-2-yl)amino)-6-(5-(thiophen-2-yl)pyrazolo[1,5-a]pyrimidin-3-yl)isonicotinamide] | 1.07
CCN(CC)[C@@H](C)CNC(=O)c1cc(Nc2ncc[nH]2)nc(-c2cnn3ccc(-c4cccs4)nc23)c1 [Example 241, (S)-2-((1H-imidazol-2-yl)amino)-N-(2-(diethylamino)propyl)-6-(5-(thiophen-2-yl)pyrazolo[1,5-a]pyrimidin-3-yl)isonicotinamide] | 1.87
CCN(CC)[C@@H](C)CNC(=O)c1cc(NCCS(N)(=O)=O)nc(-c2cnn3ccc(-c4cccs4)nc23)c1 [Example 242, (S)—N-(2-(diethylamino)propyl)-2-((2-sulfamoylethyl)amino)-6-(5-(thiophen-2-yl)pyrazolo[1,5-a]pyrimidin-3-yl)isonicotinamide] | 0.07
CCN[C@@H](C)CNC(=O)c1cc(-c2cnn3ccc(-c4cccs4)nc23)nc(N2CC(C)(O)C2)c1 [Example 245, (S)—N-(2-(ethylamino)propyl)-2-(3-hydroxy-3-methylazetidin-1-yl)-6-(5-(thiophen-2-yl)pyrazolo[1,5-a]pyrimidin-3-yl)isonicotinamide] | 9.25
CCN(CC)[C@@H](C)CNC(=O)c1cc(NCC(=O)NC)nc(-c2cnn3ccc(-c4cccs4)nc23)c1 [Example 246, (S)—N-(2-(diethylamino)propyl)-2-((2-(methylamino)-2-oxoethyl)amino)-6-(5-(thiophen-2-yl)pyrazolo[1,5-a]pyrimidin-3-yl)isonicotinamide] | 0.17
CCN(CC)CCNC(=O)c1cc(-c2cnn3ccc(-c4cccs4)nc23)nc(N2CC(OC)C2)c1 [Example 254, N-(2-(diethylamino)ethyl)-2-(3-methoxyazetidin-1-yl)-6-(5-(thiophen-2-yl)pyrazolo[1,5-a]pyrimidin-3-yl)isonicotinamide] | 0.86
COC1CN(c2cc(C(=O)NC[C@@H]3CCCN3)cc(-c3cnn4ccc(-c5cccs5)nc34)n2)C1 [Example 255, (S)-2-(3-methoxyazetidin-1-yl)-N-(pyrrolidin-2-ylmethyl)-6-(5-(thiophen-2-yl)pyrazolo[1,5-a]pyrimidin-3-yl)isonicotinamide] | 33.9
